Source: PubChem BioAssay (NCI)
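The compound was tested at five concentrations on cells cultured in 96-well plates, with a 48-hour exposure period. GI50 is the concentration that inhibits growth by half. TGI marks complete inhibition of growth.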

What was measured:
Assay in all cases: NCI tumour cell line growth inhibition, 48 h
HOP-18 NSCLC = system: HOP-18 NSCLC
KM20L2 colon = system: KM20L2 colon
XF 498 CNS = system: XF 498 CNS
DLD-1 colon = system: DLD-1 colon
DMS 114 small cell lung = system: DMS 114 small cell lung
DMS 273 small cell lung = system: DMS 273 small cell lung
SNB-78 CNS = system: SNB-78 CNS
P388/ADR leukemia = system: P388/ADR leukemia
SN12K1 renal = system: SN12K1 renal
MDA-N = system: MDA-N
RXF-631 renal = system: RXF-631 renal

| SMILES | TGI (HOP-18 NSCLC) | TGI (KM20L2 colon) | TGI (XF 498 CNS) | TGI (DLD-1 colon) | TGI (DMS 114 small cell lung) | TGI (DMS 273 small cell lung) | TGI (SNB-78 CNS) | TGI (P388/ADR leukemia) | TGI (SN12K1 renal) | GI50 (MDA-N) | TGI (MDA-N) | TGI (RXF-631 renal) |
| --- | --- | --- | --- | --- | --- | --- | --- | --- | --- | --- | --- | --- |
| COC(=O)C1=CO[C@@H](OC2CC(CO)C(O)C(O)C2O)[C@@H]2[C@@H](C)[C@@H](OC(=O)/C=C/c3ccccc3)[C@@H](O)[C@H]12 (stereo partly specified) (tested in a mixture with another compound) | > 100 µM | > 100 µM | > 100 µM | > 100 µM | > 100 µM |  |  |  |  |  |  |  |
| Nc1ncnc2c1ncn2C1OC(CSCC(F)(F)F)C(O)C1O (stereo unspecified) | > 100 µM | > 100 µM | > 100 µM | > 100 µM |  | > 100 µM | > 100 µM |  |  |  |  |  |
| CN(C(=O)/C=C/c1ccccc1)C1C2CN3CCC(O2)C13 (stereo unspecified) | > 100 µM | > 100 µM | > 100 µM | > 100 µM | > 100 µM | > 100 µM | > 100 µM |  |  |  |  |  |
| CC1CC(C)CC(C)C(O)/C(C#N)=C/C=C/CC(C2CCCC2C(=O)O)OC(=O)CC(O)C(C)C1 (stereo unspecified) | 0.0612 µM | 1.43 µM | < 0.0264 µM | 0.0819 µM | < 0.016 µM | 0.11 µM | 0.13 µM | < 0.0143 µM | < 0.0223 µM | 0.0188 µM | 0.0646 µM | 0.254 µM |
| O=C1C=CC(=O)c2c1ccc1c3ccccc3n(Cc3ccc([N+](=O)[O-])cc3)c21 |  |  |  |  |  |  |  |  |  |  | > 100 µM |  |
| O=C(Nc1cccc(Cl)c1)Nn1cnnc1 |  |  |  |  |  |  |  |  |  |  | > 100 µM |  |
| Cc1c(/C=N/NC(=O)c2ccccc2O)c(=O)n(-c2ccccc2)n1C | > 100 µM | > 100 µM | > 100 µM | > 100 µM | > 100 µM | > 100 µM | > 100 µM |  |  |  |  |  |
| CC(=O)Nc1ccc(-c2cc(C(=O)O)c3cc4ccccc4cc3n2)cc1 |  |  |  |  |  |  |  |  |  |  | > 100 µM |  |
| COC1=NCc2ccccc2-c2ccccc21 | > 100 µM |  | > 100 µM | > 100 µM | > 100 µM | > 100 µM | > 100 µM |  |  |  |  |  |
| O=c1ncccn1[C@@H]1O[C@H](CO)[C@H](O)C1O (stereo partly specified) | > 100 µM | > 100 µM | > 100 µM | > 100 µM | > 100 µM | > 100 µM | > 100 µM |  |  |  |  |  |
| COC(=O)/C(=N\NC(C)(C)C)C(C(=O)OC)C(=O)C(=O)Nc1cc(Cl)ccc1Cl (stereo unspecified) | > 100 µM | > 100 µM | > 100 µM | > 100 µM | > 100 µM | > 100 µM | > 100 µM |  |  |  |  | > 100 µM |
| C[C@@H](NC(C#N)c1ccco1)c1ccccc1 (stereo partly specified) |  |  |  |  |  |  |  |  |  |  | > 100 µM |  |
| C[N+](C)(C)CCC(=O)CC[N+](C)(C)C | 31.8 µM | 55.4 µM | 46.6 µM | 39.2 µM | 44.2 µM | 63.6 µM | 50.8 µM |  |  |  |  |  |
| O=C(/C=C/c1ccccc1)Oc1cccc2cccnc12 | > 100 µM | > 39.3 µM | 72.5 µM | 31.4 µM |  | 45.6 µM | > 100 µM |  |  |  |  |  |
| CC(=O)OCc1c2ccccc2c(C)c2c1cc(F)c1ccccc12 | > 100 µM | 87 µM | 45.2 µM | 64.3 µM | > 100 µM | 26.4 µM | 59.8 µM |  |  |  |  | 63 µM |
| Cn1c(=O)nc2n(-c3ccc(O)cc3)c3ccccc3nc-2c1=O | > 100 µM | > 100 µM | > 100 µM | > 100 µM | > 100 µM | > 100 µM | > 100 µM |  |  |  |  | > 100 µM |
| CCSCCCSCCSCC |  |  |  |  |  |  |  |  |  |  | > 100 µM |  |
| Cc1cc2c(C)nn(Cc3ccccc3)c2c(C(=O)O)c1C | > 100 µM | > 100 µM | > 100 µM |  |  | > 100 µM | > 100 µM |  |  |  |  | > 100 µM |
| CC1=C(C(=O)Nc2ccccc2C)C(c2ccc(Cl)cc2)C(C(=O)Nc2ccccc2C)=C(C)N1 | > 100 µM |  | > 100 µM | > 100 µM | > 100 µM |  | > 100 µM |  |  |  |  | > 100 µM |
| O=C1CC(CC(=O)C2CCCCC2=O)C(=O)N1 (stereo unspecified) | > 100 µM | > 100 µM | > 100 µM | > 100 µM | > 100 µM | > 100 µM | > 100 µM |  |  |  |  |  |
| IC[P+]1(c2ccccc2)CCCC1 | > 100 µM | > 100 µM |  | > 100 µM | 36.3 µM | > 100 µM | > 100 µM |  |  |  |  |  |
| N=C1C(O)C2(I)c3ccccc3N3C(=N)C(O)C4c5ccccc5N1C4C32 (stereo unspecified) |  |  |  |  |  |  |  |  |  |  | > 100 µM |  |
| Cc1nc(C(N)=O)c(N)n1CCN1CCN(C(=O)CCCCCCCCCCNC2N=CNc3nc[nH]c32)CC1 (stereo unspecified) | > 100 µM | > 100 µM |  |  | > 100 µM |  | > 100 µM |  |  |  |  | > 100 µM |
| C=CCc1c(Cl)nc(Cl)nc1Cl |  |  |  |  |  |  |  |  |  |  | 0.116 µM |  |
| CN1CCN(C(=S)N(C)C(=O)c2ccco2)CC1 |  |  |  |  |  |  |  |  |  |  | > 100 µM |  |
| C1CSCCCSCCCSCCCSCCCSCCCSCCCSCCCSC1 |  |  |  |  |  |  |  |  |  |  | > 100 µM |  |
